In ChEMBL document CHEMBL5649169 (ChemMedChem, 2018):

Tests used:
[1] = molecular target: Peroxisomal acyl-coenzyme A oxidase 1 (Homo sapiens) (UniProt Q15067)
[2] = molecular target: Annexin A7 (Homo sapiens) (UniProt P20073)
[3] = molecular target: Sodium/potassium-transporting ATPase subunit beta-1 (Homo sapiens) (UniProt P05026)
[4] = molecular target: Serine/threonine-protein kinase MRCK alpha (Homo sapiens) (UniProt Q5VT25)
[5] = molecular target: Cyclin-dependent kinase 1 (Homo sapiens) (UniProt P06493)
[6] = molecular target: Cerebellar degeneration-related protein 2 (Homo sapiens) (UniProt Q01850)
Cerebellar degeneration-related protein 2 (Homo sapiens), sequence (Q01850 whole entry): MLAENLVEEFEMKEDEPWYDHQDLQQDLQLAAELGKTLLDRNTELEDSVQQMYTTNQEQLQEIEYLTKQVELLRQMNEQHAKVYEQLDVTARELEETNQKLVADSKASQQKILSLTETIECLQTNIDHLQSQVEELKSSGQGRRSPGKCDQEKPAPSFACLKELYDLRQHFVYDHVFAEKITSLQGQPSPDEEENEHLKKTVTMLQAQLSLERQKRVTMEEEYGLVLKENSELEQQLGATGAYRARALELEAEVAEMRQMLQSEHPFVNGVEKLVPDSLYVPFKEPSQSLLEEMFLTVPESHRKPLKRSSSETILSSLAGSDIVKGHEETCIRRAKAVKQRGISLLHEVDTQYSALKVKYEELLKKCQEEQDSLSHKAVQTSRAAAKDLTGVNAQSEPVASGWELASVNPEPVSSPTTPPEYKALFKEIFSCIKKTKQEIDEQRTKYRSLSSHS

[7] = molecular target: COP9 signalosome complex subunit 2 (Homo sapiens) (UniProt P61201)
COP9 signalosome complex subunit 2 (Homo sapiens), sequence (P61201 whole entry, one chain of several): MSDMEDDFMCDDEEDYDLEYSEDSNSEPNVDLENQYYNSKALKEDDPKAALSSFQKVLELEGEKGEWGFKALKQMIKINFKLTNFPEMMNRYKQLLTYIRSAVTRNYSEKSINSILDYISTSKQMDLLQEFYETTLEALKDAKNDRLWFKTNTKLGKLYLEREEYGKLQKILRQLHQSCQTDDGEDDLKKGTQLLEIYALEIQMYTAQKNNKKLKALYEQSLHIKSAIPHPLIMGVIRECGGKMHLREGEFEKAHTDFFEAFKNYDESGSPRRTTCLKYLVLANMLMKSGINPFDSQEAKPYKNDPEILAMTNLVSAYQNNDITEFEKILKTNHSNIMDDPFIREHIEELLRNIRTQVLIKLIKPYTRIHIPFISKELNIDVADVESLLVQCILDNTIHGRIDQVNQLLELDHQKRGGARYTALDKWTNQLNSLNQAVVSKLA

[8] = molecular target: Drebrin-like protein (Homo sapiens) (UniProt Q9UJU6)
Dynamin-2 (Homo sapiens) = Dynamin-2 (Homo sapiens) (UniProt P50570)
[9] = molecular target: Cytoplasmic dynein 1 heavy chain 1 (Homo sapiens) (UniProt Q14204)
[10] = molecular target: rRNA 2'-O-methyltransferase fibrillarin (Homo sapiens) (UniProt P22087)
[11] = molecular target: Ferrochelatase, mitochondrial (Homo sapiens) (UniProt P22830)
[12] = molecular target: Gem-associated protein 5 (Homo sapiens) (UniProt Q8TEQ6)
[13] = molecular target: Holocytochrome c-type synthase (Homo sapiens) (UniProt P53701)
Holocytochrome c-type synthase (Homo sapiens), sequence (P53701 whole entry): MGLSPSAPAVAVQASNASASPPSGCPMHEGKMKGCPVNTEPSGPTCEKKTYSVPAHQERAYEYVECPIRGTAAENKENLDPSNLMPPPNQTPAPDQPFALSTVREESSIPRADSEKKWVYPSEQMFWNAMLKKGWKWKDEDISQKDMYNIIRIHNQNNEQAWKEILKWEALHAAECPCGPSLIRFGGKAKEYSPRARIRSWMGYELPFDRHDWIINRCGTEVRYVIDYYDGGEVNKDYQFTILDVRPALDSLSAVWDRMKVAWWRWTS

[14] = molecular target: Importin-5 (Homo sapiens) (UniProt O00410)
[15] = molecular target: Mitogen-activated protein kinase kinase kinase 3 (Homo sapiens) (UniProt Q99759)
Midasin (Homo sapiens) = Midasin (Homo sapiens) (UniProt Q9NU22)
[16] = molecular target: MMS19 nucleotide excision repair protein homolog (Homo sapiens) (UniProt Q96T76)
[17] = molecular target: CDK-activating kinase assembly factor MAT1 (Homo sapiens) (UniProt P51948)
[18] = molecular target: Small ribosomal subunit protein uS7m (Homo sapiens) (UniProt Q9Y2R9)
[19] = molecular target: Programmed cell death protein 6 (Homo sapiens) (UniProt O75340)
Programmed cell death protein 6 (Homo sapiens), sequence (O75340 whole entry): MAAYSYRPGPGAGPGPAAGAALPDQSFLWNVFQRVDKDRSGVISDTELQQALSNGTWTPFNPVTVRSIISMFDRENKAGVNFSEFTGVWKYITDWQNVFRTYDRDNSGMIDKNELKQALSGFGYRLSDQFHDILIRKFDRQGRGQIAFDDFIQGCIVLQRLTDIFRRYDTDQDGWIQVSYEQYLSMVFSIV

[20] = molecular target: Protein disulfide-isomerase A3 (Homo sapiens) (UniProt P30101)
[21] = molecular target: ATP-dependent 6-phosphofructokinase, platelet type (Homo sapiens) (UniProt Q01813)
[22] = molecular target: Inorganic pyrophosphatase (Homo sapiens) (UniProt Q15181)
[23] = molecular target: 5'-AMP-activated protein kinase subunit gamma-2 (Homo sapiens) (UniProt Q9UGJ0)
[24] = molecular target: Ras-related protein Rab-10 (Homo sapiens) (UniProt P61026)
[25] = molecular target: Ras-related protein Rab-7a (Homo sapiens) (UniProt P51149)
Homo sapiens [26] = species: Homo sapiens
[27] = molecular target: Large ribosomal subunit protein uL5 (Homo sapiens) (UniProt P62913)
[28] = molecular target: Large ribosomal subunit protein uL22 (Homo sapiens) (UniProt P18621)
[29] = molecular target: Large ribosomal subunit protein uL30 (Homo sapiens) (UniProt P18124)
Homo sapiens [30] = species: Homo sapiens; remark: listed apart in the source
[31] = molecular target: Ribosomal protein S6 kinase alpha-6 (Homo sapiens) (UniProt Q9UK32)
Ribosomal protein S6 kinase alpha-6 (Homo sapiens), sequence (Q9UK32 whole entry): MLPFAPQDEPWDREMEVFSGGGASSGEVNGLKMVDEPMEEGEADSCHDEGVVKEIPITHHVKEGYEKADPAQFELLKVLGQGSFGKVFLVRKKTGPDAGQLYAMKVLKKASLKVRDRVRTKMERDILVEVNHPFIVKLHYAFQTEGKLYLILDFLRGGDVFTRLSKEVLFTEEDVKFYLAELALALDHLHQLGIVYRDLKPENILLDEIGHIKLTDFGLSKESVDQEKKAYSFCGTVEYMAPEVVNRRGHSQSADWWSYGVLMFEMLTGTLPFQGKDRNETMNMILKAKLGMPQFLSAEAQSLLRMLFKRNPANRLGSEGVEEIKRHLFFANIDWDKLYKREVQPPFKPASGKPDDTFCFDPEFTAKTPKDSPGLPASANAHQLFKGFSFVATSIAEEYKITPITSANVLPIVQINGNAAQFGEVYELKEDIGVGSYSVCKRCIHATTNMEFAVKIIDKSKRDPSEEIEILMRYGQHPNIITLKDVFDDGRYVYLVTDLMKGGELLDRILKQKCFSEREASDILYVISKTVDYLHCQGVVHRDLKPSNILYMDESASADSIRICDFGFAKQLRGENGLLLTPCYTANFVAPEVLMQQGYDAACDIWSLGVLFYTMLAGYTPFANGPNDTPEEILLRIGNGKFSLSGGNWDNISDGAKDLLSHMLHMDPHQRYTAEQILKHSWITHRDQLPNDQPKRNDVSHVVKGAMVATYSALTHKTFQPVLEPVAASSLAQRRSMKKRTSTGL

[32] = molecular target: Reticulon-4 (Homo sapiens) (UniProt Q9NQC3)
[33] = molecular target: Protein transport protein Sec23B (Homo sapiens) (UniProt Q15437)
[34] = molecular target: SWI/SNF complex subunit SMARCC2 (Homo sapiens) (UniProt Q8TAQ2)
[35] = molecular target: Structural maintenance of chromosomes protein 2 (Homo sapiens) (UniProt O95347)
[36] = molecular target: Sterol O-acyltransferase 1 (Homo sapiens) (UniProt P35610)
[37] = molecular target: E3 ubiquitin-protein ligase synoviolin (Homo sapiens) (UniProt Q86TM6)
[38] = molecular target: Protein THEM6 (Homo sapiens) (UniProt Q8WUY1)
[39] = molecular target: Transportin-1 (Homo sapiens) (UniProt Q92973)
Transportin-1 (Homo sapiens), sequence (Q92973 whole entry): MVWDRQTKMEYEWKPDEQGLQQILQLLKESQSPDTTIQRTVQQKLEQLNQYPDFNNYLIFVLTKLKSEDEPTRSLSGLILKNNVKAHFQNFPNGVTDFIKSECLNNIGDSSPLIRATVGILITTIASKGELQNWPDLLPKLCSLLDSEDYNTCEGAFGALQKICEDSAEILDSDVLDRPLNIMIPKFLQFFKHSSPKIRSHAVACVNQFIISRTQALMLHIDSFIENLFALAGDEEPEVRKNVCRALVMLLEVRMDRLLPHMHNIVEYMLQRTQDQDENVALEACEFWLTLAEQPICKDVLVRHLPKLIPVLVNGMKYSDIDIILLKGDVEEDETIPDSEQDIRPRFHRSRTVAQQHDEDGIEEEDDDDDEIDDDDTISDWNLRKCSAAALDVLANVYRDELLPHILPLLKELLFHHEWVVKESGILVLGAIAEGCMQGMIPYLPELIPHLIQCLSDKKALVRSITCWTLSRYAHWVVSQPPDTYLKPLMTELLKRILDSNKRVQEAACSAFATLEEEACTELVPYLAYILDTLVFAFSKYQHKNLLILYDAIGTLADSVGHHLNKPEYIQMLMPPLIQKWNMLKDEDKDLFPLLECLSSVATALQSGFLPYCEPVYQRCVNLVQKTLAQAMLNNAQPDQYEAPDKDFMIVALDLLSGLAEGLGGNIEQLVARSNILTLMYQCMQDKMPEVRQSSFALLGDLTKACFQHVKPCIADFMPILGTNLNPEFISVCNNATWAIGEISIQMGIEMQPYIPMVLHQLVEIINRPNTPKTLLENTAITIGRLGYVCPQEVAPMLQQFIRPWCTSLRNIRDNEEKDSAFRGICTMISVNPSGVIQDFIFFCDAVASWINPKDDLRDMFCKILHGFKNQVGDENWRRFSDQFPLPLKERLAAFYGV

[40] = molecular target: EKC/KEOPS complex subunit TP53RK (Homo sapiens) (UniProt Q96S44)
[41] = molecular target: Tripeptidyl-peptidase 2 (Homo sapiens) (UniProt P29144)
Tripeptidyl-peptidase 2 (Homo sapiens), sequence (P29144 whole entry): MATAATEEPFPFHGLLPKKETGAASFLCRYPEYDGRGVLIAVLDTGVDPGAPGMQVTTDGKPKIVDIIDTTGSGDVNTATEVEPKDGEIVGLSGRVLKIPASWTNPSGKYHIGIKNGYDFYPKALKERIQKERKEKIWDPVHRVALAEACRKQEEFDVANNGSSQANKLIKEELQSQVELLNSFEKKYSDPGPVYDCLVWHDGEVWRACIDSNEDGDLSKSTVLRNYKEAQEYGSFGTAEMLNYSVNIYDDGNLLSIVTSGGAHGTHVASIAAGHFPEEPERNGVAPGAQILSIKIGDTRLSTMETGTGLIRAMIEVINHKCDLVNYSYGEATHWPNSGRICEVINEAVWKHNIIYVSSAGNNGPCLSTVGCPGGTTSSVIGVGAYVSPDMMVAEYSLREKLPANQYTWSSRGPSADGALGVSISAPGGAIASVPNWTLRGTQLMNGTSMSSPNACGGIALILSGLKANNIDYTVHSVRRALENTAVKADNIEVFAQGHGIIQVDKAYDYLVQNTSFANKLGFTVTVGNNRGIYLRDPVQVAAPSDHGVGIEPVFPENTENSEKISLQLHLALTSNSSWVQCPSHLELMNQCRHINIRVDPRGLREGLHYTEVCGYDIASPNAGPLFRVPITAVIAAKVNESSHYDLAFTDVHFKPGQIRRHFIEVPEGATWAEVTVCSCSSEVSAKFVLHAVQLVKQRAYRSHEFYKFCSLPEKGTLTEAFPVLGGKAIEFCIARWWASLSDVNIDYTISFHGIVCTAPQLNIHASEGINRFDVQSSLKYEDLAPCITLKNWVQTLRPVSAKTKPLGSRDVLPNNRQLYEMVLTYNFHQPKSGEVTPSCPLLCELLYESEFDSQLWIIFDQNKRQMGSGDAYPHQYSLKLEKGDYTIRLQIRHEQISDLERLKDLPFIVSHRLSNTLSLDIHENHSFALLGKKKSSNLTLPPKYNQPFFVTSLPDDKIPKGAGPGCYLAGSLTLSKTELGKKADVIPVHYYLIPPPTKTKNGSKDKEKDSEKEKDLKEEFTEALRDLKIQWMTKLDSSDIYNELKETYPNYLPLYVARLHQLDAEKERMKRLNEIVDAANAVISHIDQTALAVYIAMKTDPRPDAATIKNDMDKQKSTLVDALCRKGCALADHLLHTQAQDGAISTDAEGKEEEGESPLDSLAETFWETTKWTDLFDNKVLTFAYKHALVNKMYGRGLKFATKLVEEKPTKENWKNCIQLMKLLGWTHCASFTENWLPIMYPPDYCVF

[42] = molecular target: TNF receptor-associated factor 2 (Homo sapiens) (UniProt Q12933)
[43] = molecular target: Tubulin beta-5 chain (Homo sapiens) (UniProt P07437)
[44] = molecular target: Tubulin beta-3 chain (Homo sapiens) (UniProt Q13509)
[45] = molecular target: Tubulin beta-4B chain (Homo sapiens) (UniProt P68371)
Tubulin beta-4B chain (Homo sapiens), sequence (P68371 whole entry): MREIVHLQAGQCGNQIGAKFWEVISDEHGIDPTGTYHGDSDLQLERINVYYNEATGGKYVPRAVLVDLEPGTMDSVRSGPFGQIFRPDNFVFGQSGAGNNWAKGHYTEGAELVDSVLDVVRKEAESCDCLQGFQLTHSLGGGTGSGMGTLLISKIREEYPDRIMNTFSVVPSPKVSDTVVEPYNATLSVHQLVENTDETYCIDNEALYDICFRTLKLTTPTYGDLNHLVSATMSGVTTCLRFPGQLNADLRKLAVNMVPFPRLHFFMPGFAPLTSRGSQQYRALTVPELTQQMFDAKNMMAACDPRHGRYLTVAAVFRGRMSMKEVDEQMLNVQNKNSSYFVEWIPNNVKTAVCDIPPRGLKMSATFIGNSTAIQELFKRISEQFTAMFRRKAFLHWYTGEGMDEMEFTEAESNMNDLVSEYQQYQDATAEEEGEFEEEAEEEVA

[46] = molecular target: 14-3-3 protein eta (Homo sapiens) (UniProt Q04917)
14-3-3 protein eta (Homo sapiens), sequence (Q04917 whole entry): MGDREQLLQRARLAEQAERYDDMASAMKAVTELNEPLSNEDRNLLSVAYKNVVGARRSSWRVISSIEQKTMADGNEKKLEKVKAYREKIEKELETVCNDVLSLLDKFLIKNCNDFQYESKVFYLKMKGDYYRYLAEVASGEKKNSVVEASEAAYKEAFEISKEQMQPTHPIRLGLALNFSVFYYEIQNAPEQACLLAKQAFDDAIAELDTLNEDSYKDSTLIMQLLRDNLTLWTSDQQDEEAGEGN
Note: assay method not described here.

Cc1ccc(C(=O)Nc2cccc(C(F)(F)F)c2)cc1Nc1nc(-c2cccnc2)nc2c1cnn2C
ED50 [1]: 15.2 µM | ED50 [2]: 21.9 µM | ED50 [3]: 0.0536 µM | ED50 [4]: 111 µM | ED50 [5]: 3.8 µM | ED50 [6]: 26.2 µM | ED50 [7]: 24.6 µM | ED50 [8]: 0.133 µM | ED50 (Dynamin-2 (Homo sapiens)): 21.9 µM | ED50 [9]: 1.3 µM | ED50 [10]: 5.44 µM | ED50 [11]: 2.92 µM | ED50 [12]: 105 µM | ED50 [13]: 0.0888 µM | ED50 [14]: 0.00445 µM | ED50 [15]: 12.1 µM | ED50 (Midasin (Homo sapiens)): 55500 µM | ED50 [16]: 0.97 µM | ED50 [17]: 0.00972 µM | ED50 [18]: 7.18 µM | ED50 [19]: 1.36 µM | ED50 [20]: 3.03 µM | ED50 [21]: 9.49 µM | ED50 [22]: 8.44 µM | ED50 [23]: 57.4 µM | ED50 [24]: 0.846 µM | ED50 [25]: 6.59 µM | ED50 (Homo sapiens [26]): 17.4 µM | ED50 [27]: 0.0395 µM | ED50 [28]: 6.61 µM | ED50 [29]: 0.0167 µM | ED50 (Homo sapiens [30]): 3.75 µM | ED50 [31]: 0.735 µM | ED50 [32]: 0.00531 µM | ED50 [33]: 9.39 µM | ED50 [34]: 21.8 µM | ED50 [35]: 5.62 µM | ED50 [36]: 224 µM | ED50 [37]: 0.162 µM | ED50 [38]: 1.7 µM | ED50 [39]: 3.81 µM | ED50 [40]: 3.47 µM | ED50 [41]: 53.8 µM | ED50 [42]: 3.11 µM | ED50 [43]: 2.46 µM | ED50 [44]: 3.06 µM | ED50 [45]: 2.68 µM | ED50 [46]: 0.0217 µM

Cc1ccc(C(=O)Nc2cccc(C(F)(F)F)c2)cc1Nc1nc(-c2cccnc2)nc2nn(C)cc12
ED50 [1]: 2.69 µM | ED50 [2]: 0.0697 µM | ED50 [3]: 0.0335 µM | ED50 [4]: 0.0291 µM | ED50 [5]: 7.91 µM | ED50 [6]: 0.303 µM | ED50 [7]: 79.4 µM | ED50 [8]: 0.0059 µM | ED50 (Dynamin-2 (Homo sapiens)): 0.471 µM | ED50 [9]: 51200 µM | ED50 [10]: 0.0214 µM | ED50 [11]: 8.18 µM | ED50 [12]: 0.232 µM | ED50 [13]: 0.144 µM | ED50 [14]: 0.342 µM | ED50 [15]: 0.0358 µM | ED50 (Midasin (Homo sapiens)): 0.048 µM | ED50 [16]: 1.3 µM | ED50 [17]: 3.4 µM | ED50 [18]: 154 µM | ED50 [19]: 1.04 µM | ED50 [20]: 0.103 µM | ED50 [21]: 0.00571 µM | ED50 [22]: 1.31 µM | ED50 [23]: 0.0408 µM | ED50 [24]: 7.34 µM | ED50 [25]: 0.44 µM | ED50 (Homo sapiens [26]): 0.0301 µM | ED50 [27]: 1.63 µM | ED50 [28]: 15.8 µM | ED50 [29]: 12.3 µM | ED50 (Homo sapiens [30]): 0.285 µM | ED50 [31]: 20400 µM | ED50 [32]: 3.55 µM | ED50 [33]: 0.0397 µM | ED50 [34]: 0.0058 µM | ED50 [35]: 0.0113 µM | ED50 [36]: 7.06 µM | ED50 [37]: 0.00734 µM | ED50 [38]: 0.0621 µM | ED50 [39]: 0.464 µM | ED50 [40]: 0.485 µM | ED50 [41]: 0.487 µM | ED50 [42]: 0.68 µM | ED50 [43]: 0.00905 µM | ED50 [44]: 0.106 µM | ED50 [45]: 0.0012 µM | ED50 [46]: 0.103 µM
